Reference: patent publication US12649750B2, “Macrocyclic compounds, compositions, and methods of using thereof” (Sionna Therapeutics Inc., priority 2022, dated 2026)

Assays:
[1] = target: T1, CFTR (Homo sapiens, UniProt P13569, DEL508-508); experiment: TECC24 AUC fold over DMSO @10 μM, CFTR-mediated transepithelial chloride transport in CF-HBE cells; assay type: cell-based; settings: test agent AUC divided by DMSO vehicle AUC, primary CF-HBE cells, ΔF508 homozygous donor, 48 hours incubation
T1 construct: Primary human bronchial epithelial cells from a ΔF508 homozygous CF donor; host or cells: primary human bronchial epithelial cells (CF-HBE), ΔF508 homozygous donor
T1 sequence (P13569 with tags, fused parts or gaps DEL508-508): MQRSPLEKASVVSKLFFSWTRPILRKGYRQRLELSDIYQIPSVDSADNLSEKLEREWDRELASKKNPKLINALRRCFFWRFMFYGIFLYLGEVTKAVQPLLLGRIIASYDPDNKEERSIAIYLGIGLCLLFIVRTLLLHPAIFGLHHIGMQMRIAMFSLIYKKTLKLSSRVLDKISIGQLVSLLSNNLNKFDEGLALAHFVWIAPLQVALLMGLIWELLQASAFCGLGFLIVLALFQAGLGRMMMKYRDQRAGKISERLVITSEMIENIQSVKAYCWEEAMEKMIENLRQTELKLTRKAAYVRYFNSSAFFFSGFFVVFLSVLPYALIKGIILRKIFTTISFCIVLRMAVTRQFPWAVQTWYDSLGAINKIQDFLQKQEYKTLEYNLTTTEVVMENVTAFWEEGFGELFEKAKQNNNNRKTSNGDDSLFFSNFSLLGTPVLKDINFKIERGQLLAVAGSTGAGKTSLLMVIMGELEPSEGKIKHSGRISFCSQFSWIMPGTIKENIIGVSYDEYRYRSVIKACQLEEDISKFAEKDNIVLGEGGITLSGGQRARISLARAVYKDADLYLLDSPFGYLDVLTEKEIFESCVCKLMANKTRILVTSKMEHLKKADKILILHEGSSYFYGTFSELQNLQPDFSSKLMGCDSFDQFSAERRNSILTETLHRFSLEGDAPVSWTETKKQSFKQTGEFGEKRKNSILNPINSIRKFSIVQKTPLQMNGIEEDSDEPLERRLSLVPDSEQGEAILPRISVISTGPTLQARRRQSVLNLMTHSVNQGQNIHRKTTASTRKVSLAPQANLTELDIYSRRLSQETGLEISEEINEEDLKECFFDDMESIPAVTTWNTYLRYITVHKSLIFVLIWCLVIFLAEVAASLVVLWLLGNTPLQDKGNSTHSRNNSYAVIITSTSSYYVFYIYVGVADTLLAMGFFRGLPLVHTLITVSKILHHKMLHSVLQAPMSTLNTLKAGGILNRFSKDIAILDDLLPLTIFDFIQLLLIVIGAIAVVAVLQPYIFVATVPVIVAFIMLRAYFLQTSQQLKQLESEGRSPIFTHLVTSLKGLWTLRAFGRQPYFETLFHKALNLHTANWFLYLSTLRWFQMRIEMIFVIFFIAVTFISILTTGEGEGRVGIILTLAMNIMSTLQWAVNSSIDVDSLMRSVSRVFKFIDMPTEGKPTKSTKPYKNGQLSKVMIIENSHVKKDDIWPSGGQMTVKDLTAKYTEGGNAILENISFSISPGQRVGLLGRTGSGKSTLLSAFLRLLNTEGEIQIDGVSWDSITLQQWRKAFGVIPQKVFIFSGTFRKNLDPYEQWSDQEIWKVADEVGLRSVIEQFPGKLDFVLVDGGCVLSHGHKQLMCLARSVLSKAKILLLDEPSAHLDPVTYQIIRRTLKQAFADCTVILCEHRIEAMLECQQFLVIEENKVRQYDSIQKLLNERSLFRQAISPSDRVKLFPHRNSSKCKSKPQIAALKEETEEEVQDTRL
Method in brief: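 ΔF508-homozygous primary bronchial epithelial cells incubated 48 h at 36.5° C with compound (10 μM) in IL-13-containing medium, then TECC24 current-clamp recording in pH 7.4 Hepes saline with benzamil 10 μM, forskolin 10 μM, then CFTR inhibitor-172 20 μM. Equivalent Cl− current AUC between forskolin and inhibitor, expressed as fold over DMSO.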

[2] = target: T2, NBD1 (Homo sapiens, UniProt P13569); experiment: Aggregation analysis using differential static light scattering (DSLS), thermal stability of NBD1 (ΔTagg); assay type: binding; settings: ΔTagg versus DMSO control, NBD1 0.2 mg/ml
T2 construct: Purified recombinant NBD1 was produced using previously described methods; made in house
T2 sequence (P13569 423-646 limits assumed): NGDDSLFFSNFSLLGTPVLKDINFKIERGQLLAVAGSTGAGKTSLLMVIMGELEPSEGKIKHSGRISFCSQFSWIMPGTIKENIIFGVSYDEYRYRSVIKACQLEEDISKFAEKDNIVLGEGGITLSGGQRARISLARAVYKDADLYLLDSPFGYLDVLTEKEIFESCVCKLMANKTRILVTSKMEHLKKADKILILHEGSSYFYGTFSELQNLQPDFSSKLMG
Method in brief: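 Thermal aggregation of purified NBD1 was followed by static light scattering during a 1° C./min ramp to 70° C. Protein was at 0.2 mg/ml with 2 mM ATP at pH7.6. Each compound's Tagg was referenced to DMSO controls.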

SMILES: C[C@H](Cc1cccc([C@@]2(C)CCCC(C)(C)CS(=O)(=O)CCc3c(c(F)cc4[nH]ccc34)[S+]([O-])c3ccnc(c3)-c3nc2nn3C)c1)C(=O)O (stereo partly drawn) [Compound 231, (2R)-3-[3-[(6R)-22-Fluoro-3,6,10,10-tetramethyl-12,12,24-trioxo-12λ6,24λ4-dithia-3,4,19,28,30-pentazapentacyclo[23.3.1.12,5.015,23.016,20]triaconta-1(29),2(30),4,15,17,20,22,25,27-nonaen-6-yl]phenyl]-2-methyl-propanoic Acid]
- TECC (AUC, 10 μM) [1]: C (a value between 20 and 80 is marked “C”)
- DSLS 3D (100 μM ΔT) [2]: C (a value greater than 10 °C and less than or equal to 25 °C is marked “C”)

SMILES: C[C@@H](Cc1cccc([C@@]2(C)CCCC(C)(C)CS(=O)(=O)CCc3c(c(F)cc4[nH]ccc34)Cc3ccnc(c3)-c3nc2nn3C)c1)C(=O)O [Compound 233, (2S)-3-[3-[(6R)-22-Fluoro-3,6,10,10-tetramethyl-12,12-dioxo-12λ6-thia-3,4,19,28,30-pentazapentacyclo[23.3.1.12,5.015,23.016,20]triaconta-1(29),2(30),4,15,17,20,22,25,27-nonaen-6-yl]phenyl]-2-methyl-propanoic Acid]
- TECC (AUC, 10 μM) [1]: B (a value between 12-20 is marked “B”)
- DSLS 3D (100 μM ΔT) [2]: C (a value greater than 10 °C and less than or equal to 25 °C is marked “C”)

SMILES: C[C@H](Cc1cccc([C@@]2(C)CCCC(C)(C)CS(=O)(=O)CCc3c(c(F)cc4[nH]ccc34)Cc3ccnc(c3)-c3nc2nn3C)c1)C(=O)O [Compound 234, (2R)-3-[3-[(6R)-22-fluoro-3,6,10,10-tetramethyl-12,12-dioxo-12λ6-thia-3,4,19,28,30-pentazapentacyclo[23.3.1.12,5.015,23.016,20]triaconta-1(29),2(30),4,15,17,20,22,25,27-nonaen-6-yl]phenyl]-2-methyl-propanoic Acid]
- TECC (AUC, 10 μM) [1]: B (a value between 12-20 is marked “B”)
- DSLS 3D (100 μM ΔT) [2]: C (a value greater than 10 °C and less than or equal to 25 °C is marked “C”)

SMILES: Cn1nc2nc1-c1cc(ccn1)C(=O)c1c(F)cc3[nH]ccc3c1CCS(=O)(=O)CC(C)(C)CCC[C@]2(C)c1cccc(CCC(=O)O)c1 [Compound 238, 3-[3-[(6R)-22-fluoro-3,6,10,10-tetramethyl-12,12,24-trioxo-12λ6-thia-3,4,19,28,30-pentazapentacyclo[23.3.1.12,5.015,23.016,20]triaconta-1(29),2(30),4,15,17,20,22,25,27-nonaen-6-yl]phenyl]propanoic acid]
- TECC (AUC, 10 μM) [1]: A (a TECC value less than 12 is marked “A”)
- DSLS 3D (100 μM ΔT) [2]: C (a value greater than 10 °C and less than or equal to 25 °C is marked “C”)

SMILES: C[C@@H](Cc1cccc([C@@]2(C)CCCC(C)(C)CS(=O)(=O)CCc3c(c(F)cc4[nH]ccc34)Sc3ccc(F)c(c3)-c3nc2cs3)c1)C(=O)O [Compound 240, (2S)-3-[3-[(6R)-22,28-difluoro-6,10,10-trimethyl-12,12-dioxo-3,12λ6,24-trithia-19,30-diazapentacyclo[23.3.1.12,5.015,23.016,20]triaconta-1(29),2(30),4,15,17,20,22,25,27-nonaen-6-yl]phenyl]-2-methyl-propanoic Acid]
- TECC (AUC, 10 μM) [1]: A (a TECC value less than 12 is marked “A”)
- DSLS 3D (100 μM ΔT) [2]: B (a value above 5 °C and less than or equal to 10 °C is marked “B”)

SMILES: C[C@@H](Cc1cccc([C@@]2(C)CCCC(C)(C)CS(=O)(=O)CCc3c(c(F)cc4[nH]ccc34)Sc3ccc(F)c(c3)-c3nc2nn3C)c1)C(=O)O [Compound 242, (2S)-3-[3-[(6R)-22,28-difluoro-3,6,10,10-tetramethyl-12,12-dioxo-12λ6,24-dithia-3,4,19,30-tetrazapentacyclo[23.3.1.12,5.015,23.016,20]triaconta-1(29),2(30),4,15,17,20,22,25,27-nonaen-6-yl]phenyl]-2-methyl-propanoic Acid]
- TECC (AUC, 10 μM) [1]: C (a value between 20 and 80 is marked “C”)
- DSLS 3D (100 μM ΔT) [2]: C (a value greater than 10 °C and less than or equal to 25 °C is marked “C”)

SMILES: C[C@@H](Cc1cccc([C@@]2(C)CCCC(C)(C)CS(=O)(=O)CCc3c(c(F)cc4[nH]ccc34)Oc3cncc(c3)-c3nc2nn3C)c1)C(=O)O [Compound 244, (2S)-3-[3-[(6R)-22-fluoro-3,6,10,10-tetramethyl-12,12-dioxo-24-oxa-12λ6-thia-3,4,19,27,30-pentazapentacyclo[23.3.1.12,5.015,23.016,20]triaconta-1(29),2(30),4,15(23),16(20),17,21,25,27-nonaen-6-yl]phenyl]-2-methyl-propanoic Acid]
- TECC (AUC, 10 μM) [1]: C (a value between 20 and 80 is marked “C”)
- DSLS 3D (100 μM ΔT) [2]: C (a value greater than 10 °C and less than or equal to 25 °C is marked “C”)

SMILES: C[C@@H](Cc1cccc([C@@]2(C)CCCC(C)(C)CS(=O)(=O)CCc3c(c(F)c(F)c4[nH]ccc34)Oc3ccc(F)c(c3)-c3nc2nn3C)c1)C(=O)O [Compound 245, (2S)-2-methyl-3-[3-[(6R)-21,22,28-trifluoro-3,6,10,10-tetramethyl-12,12-dioxo-24-oxa-12λ6-thia-3,4,19,30-tetrazapentacyclo[23.3.1.12,5.015,23.016,20]triaconta-1(29),2(30),4,15,17,20,22,25,27-nonaen-6-yl]phenyl]propanoic Acid]
- TECC (AUC, 10 μM) [1]: C (a value between 20 and 80 is marked “C”)
- DSLS 3D (100 μM ΔT) [2]: C (a value greater than 10 °C and less than or equal to 25 °C is marked “C”)

SMILES: Cn1nc2nc1-c1cc(ccn1)C(=O)c1c(F)cc3[nH]ccc3c1CCS(=O)(=O)CC(C)(C)CCC[C@]2(C)c1cccc(CC(=O)O)c1 [Compound 247, 2-[3-[(6R)-22-fluoro-3,6,10,10-tetramethyl-12,12,24-trioxo-12λ6-thia-3,4,19,28,30-pentazapentacyclo[23.3.1.12,5.015,23.016,20]triaconta-1(29),2(30),4,15,17,20,22,25,27-nonaen-6-yl]phenyl]acetic Acid]
- TECC (AUC, 10 μM) [1]: C (a value between 20 and 80 is marked “C”)
- DSLS 3D (100 μM ΔT) [2]: C (a value greater than 10 °C and less than or equal to 25 °C is marked “C”)

SMILES: Cn1nc2nc1-c1cc(ccn1)Sc1c(F)cc3[nH]ccc3c1CCS(=O)(=O)CC(C)(C)CCC[C@]2(C)c1cccc(CC(=O)O)c1 [Compound 251, 2-[3-[(6R)-22-Fluoro-3,6,10,10-tetramethyl-12,12-dioxo-12λ6,24-dithia-3,4,19,28,30-pentazapentacyclo[23.3.1.12,5.015,23.016,20]triaconta-1(29),2(30),4,15,17,20,22,25,27-nonaen-6-yl]phenyl]acetic Acid]
- TECC (AUC, 10 μM) [1]: B (a value between 12-20 is marked “B”)
- DSLS 3D (100 μM ΔT) [2]: C (a value greater than 10 °C and less than or equal to 25 °C is marked “C”)

SMILES: Cn1nc2nc1-c1cncc(c1)Oc1c(F)cc3[nH]ccc3c1CCS(=O)(=O)CC(C)(C)CCC[C@]2(C)c1cccc(CCC(=O)O)c1 [Compound 252, 3-[3-[(6R)-22-Fluoro-3,6,10,10-tetramethyl-12,12-dioxo-24-oxa-12λ6-thia-3,4,19,27,30-pentazapentacyclo[23.3.1.12,5.015,23.016,20]triaconta-1(29),2(30),4,15(23),16(20),17,21,25,27-nonaen-6-yl]phenyl]propanoic Acid]
- TECC (AUC, 10 μM) [1]: C (a value between 20 and 80 is marked “C”)
- DSLS 3D (100 μM ΔT) [2]: C (a value greater than 10 °C and less than or equal to 25 °C is marked “C”)

SMILES: C[C@@H](Cc1cccc([C@@]2(C)CCCC(C)(C)CS(=O)(=O)CCc3c(c(F)cc4[nH]ccc34)Sc3ccnc(c3)-c3nc2nn3C)c1)C(=O)O [Compound 253, (2S)-3-[3-[(6R)-22-fluoro-3,6,10,10-tetramethyl-12,12-dioxo-12λ6,24-dithia-3,4,19,28,30-pentazapentacyclo[23.3.1.12,5.015,23.016,20]triaconta-1(29),2(30),4,15,17,20,22,25,27-nonaen-6-yl]phenyl]-2-methyl-propanoic Acid]
- TECC (AUC, 10 μM) [1]: B (a value between 12-20 is marked “B”)
- DSLS 3D (100 μM ΔT) [2]: C (a value greater than 10 °C and less than or equal to 25 °C is marked “C”)

SMILES: C[C@@H](Cc1cccc([C@@]2(C)CCCC(C)(C)CS(=O)(=O)CCc3c(c(F)cc4[nH]ccc34)Oc3cnnc(c3)-c3nc2nn3C)c1)C(=O)O [Compound 256, (2S)-3-[3-[(6R)-22-Fluoro-3,6,10,10-tetramethyl-12,12-dioxo-24-oxa-12λ6-thia-3,4,19,27,28,30-hexazapentacyclo[23.3.1.12,5.015,23.016,20]triaconta-1(29),2(30),4,15,17,20,22,25,27-nonaen-6-yl]phenyl]-2-methyl-propanoic Acid]
- TECC (AUC, 10 μM) [1]: C (a value between 20 and 80 is marked “C”)
- DSLS 3D (100 μM ΔT) [2]: C (a value greater than 10 °C and less than or equal to 25 °C is marked “C”)

SMILES: Cn1nc2nc1-c1cc(ccn1)Oc1c(F)c(F)c3[nH]ccc3c1CCS(=O)(=O)CC(C)(C)CCC[C@]2(C)c1cccc(CC(=O)O)c1 [Compound 257, 2-[3-[(6R)-21,22-difluoro-3,6,10,10-tetramethyl-12,12-dioxo-24-oxa-12λ6-thia-3,4,19,28,30-pentazapentacyclo[23.3.1.12,5.015,23.016,20]triaconta-1(29),2(30),4,15,17,20,22,25,27-nonaen-6-yl]phenyl]acetic Acid]
- TECC (AUC, 10 μM) [1]: B (a value between 12-20 is marked “B”)
- DSLS 3D (100 μM ΔT) [2]: C (a value greater than 10 °C and less than or equal to 25 °C is marked “C”)
